In ChEMBL document CHEMBL5500393, “Discovery and Optimization of Novel SaFabI Inhibitors as Specific Therapeutic Agents for MRSA Infection” (J Med Chem, 2024):
Converted amounts (≈) assume the structure as drawn. The source made the active and inactive calls. The rule behind the calls is not given here.

What was measured:
[1] = target: T1, Enoyl-[acyl-carrier-protein] reductase [NADPH] FabI (Staphylococcus aureus, UniProt Q6GI75); assay: Inhibition of N-terminal his 6 tagged Staphylococcus aureus Fabi (1 to […] residues) expressed in Escherichia coli BL21 incubated for 30 mins in presence of NADPH by fluorescence based microplate reader analysis
T1 sequence (Q6GI75 whole entry): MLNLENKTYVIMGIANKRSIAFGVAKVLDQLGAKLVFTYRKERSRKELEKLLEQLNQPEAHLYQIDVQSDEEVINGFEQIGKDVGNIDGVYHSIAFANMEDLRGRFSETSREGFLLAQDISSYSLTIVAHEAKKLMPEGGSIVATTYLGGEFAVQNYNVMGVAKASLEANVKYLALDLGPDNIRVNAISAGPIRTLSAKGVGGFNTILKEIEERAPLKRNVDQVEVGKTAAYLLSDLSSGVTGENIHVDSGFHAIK

[2] = Cmax in female Sprague-Dawley rat at 20 mg/kg, po measured upto 24 hrs by LC-MS analysis; format: ADME, organism-based; conditions: in vivo
[3] = Oral bioavailability in female Sprague-Dawley rat at 20 mg/kg measured upto 24 hrs by LC-MS analysis; format: ADME, organism-based; conditions: in vivo
[4] = Half life in female Sprague-Dawley rat at 20 mg/kg, po measured upto 24 hrs by LC-MS analysis; format: ADME, organism-based; conditions: in vivo
Escherichia coli = assay: Antimicrobial activity against Escherichia coli ATCC25922 measured after 24 hrs by CLSI protocol based microdilution method; format: functional
Staphylococcus aureus [5] = assay: In vivo antibacterial activity against methicilin-resistant Staphylococcus aureus ATCC33591 infected in BALB/c mouse skin infection model assessed as decrease in lesion size at 5 mg/kg administered daily for 4 days (reference value: 43.4 mm2); format: functional; conditions: time 4 day
[6] = Metabolic stability in human liver microsomes assessed as half life at 1 uM measured upto 120 mins in presence of NADPH by LC-MS analysis; format: ADME, Microsome
Staphylococcus aureus [7] = assay: In vivo antibacterial activity against methicilin-resistant Staphylococcus aureus ATCC33591 infected in BALB/c mouse skin infection model assessed as log reduction in bacterial count at 5 mg/kg administered daily for 4 days; format: functional; conditions: time 4 day
[8] = Tmax in female Sprague-Dawley rat at 20 mg/kg, po measured upto 24 hrs by LC-MS analysis; format: ADME, organism-based; conditions: in vivo
Pseudomonas aeruginosa = assay: Antimicrobial activity against Pseudomonas aeruginosa PAO1 measured after 24 hrs by CLSI protocol based microdilution method; format: functional
Staphylococcus aureus [9] = assay: In vivo antibacterial activity against methicilin-resistant Staphylococcus aureus ATCC33591 infected in BALB/c mouse skin infection model assessed as reduction in bacterial load at 5 mg/kg administered daily for 4 days; format: functional; conditions: time 4 day
Staphylococcus aureus [10] = assay: Antimicrobial activity against Staphylococcus aureus RN4220 harbouring pCM-sfgfp::fabi (promoter fabi) measured after 24 hrs by CLSI protocol based microdilution method; format: functional
Enterococcus faecium = assay: Antimicrobial activity against Enterococcus faecium ATCC19434 measured after 24 hrs by CLSI protocol based microdilution method; format: functional
Staphylococcus aureus [11] = assay: Antimicrobial activity against […] Staphylococcus aureus ATCC33591 measured after 24 hrs by CLSI protocol based microdilution method; format: functional
Staphylococcus aureus [12] = assay: In vivo antibacterial activity against methicilin-resistant Staphylococcus aureus ATCC33591 infected in BALB/c mouse skin infection model assessed as normal morphology at 5 mg/kg administered daily for 4 days by H and E staining based analysis; format: functional, organism-based; conditions: time 4.0 day
Staphylococcus aureus [13] = assay: Antimicrobial activity against Staphylococcus aureus RN4220 harbouring pCM-sfgfp::fabi (promoter-sarA) measured after 24 hrs by CLSI protocol based microdilution method; format: functional
[14] = Cmax in female Sprague-Dawley rat at 5 mg/kg, iv measured upto 24 hrs by LC-MS analysis; format: ADME, organism-based; conditions: in vivo
Acinetobacter baumannii = assay: Antimicrobial activity against Acinetobacter baumannii ATCC19606 measured after 24 hrs by CLSI protocol based microdilution method; format: functional
Staphylococcus aureus [15] = assay: Antimicrobial activity against […] Staphylococcus aureus ATCC43300 measured after 24 hrs by CLSI protocol based microdilution method; format: functional
Staphylococcus aureus [16] = assay: Antimicrobial activity against methicillin-susceptible Staphylococcus aureus ATCC29213 measured after 24 hrs by CLSI protocol based microdilution method; format: functional
Staphylococcus aureus [17] = assay: Antimicrobial activity against […] Staphylococcus aureus ATCC33591 assessed as frequency of spontaneous resistance at 8 times MIC measured after 48 hrs by; format: functional
[18] = AUC (0 to t) in female Sprague-Dawley rat at 20 mg/kg, po measured upto 24 hrs by LC-MS analysis; format: ADME, organism-based; conditions: in vivo
Staphylococcus aureus [19] = assay: Antimicrobial activity against […] Staphylococcus aureus ATCC33591 assessed as frequency of spontaneous resistance at 4 times MIC measured after 48 hrs by; format: functional
Staphylococcus aureus [20] = assay: Antimicrobial activity against […] Staphylococcus aureus NRS271 measured after 24 hrs by CLSI protocol based microdilution method; format: functional
Staphylococcus aureus [21] = assay: In vivo antibacterial activity against methicilin-resistant Staphylococcus aureus ATCC33591 infected in BALB/c mouse skin infection model assessed as restoration of cell morphology at 5 mg/kg administered daily for 4 days by H and E staining based analysis; format: functional, organism-based; conditions: time 4.0 day
[22] = Clearance in female Sprague-Dawley rat at 20 mg/kg, po measured upto 24 hrs by LC-MS analysis; format: ADME, organism-based; conditions: in vivo
Staphylococcus aureus [23] = assay: Antimicrobial activity against […] Staphylococcus aureus USA300 measured after 24 hrs by CLSI protocol based microdilution method; format: functional
[24] = Metabolic stability in mouse liver microsomes assessed as intrinsic clearance at 1 uM measured upto 120 mins in presence of NADPH by LC-MS analysis; format: ADME, Microsome; conditions: read-out: CLH
[25] = AUC (0 to t) in female Sprague-Dawley rat at 5 mg/kg, iv measured upto 24 hrs by LC-MS analysis; format: ADME, organism-based; conditions: in vivo
Staphylococcus aureus [26] = assay: In vivo antibacterial activity against methicilin-resistant Staphylococcus aureus ATCC33591 infected in BALB/c mouse skin infection model assessed as reduction in area of injury at 5 mg/kg administered daily for 4 days by H and E staining based analysis; format: functional, organism-based; conditions: time 4.0 day
Candida albicans = assay: Antimicrobial activity against Candida albicans SC5314 measured after 48 hrs by CLSI protocol based microdilution method; format: functional
Enterococcus faecalis = assay: Antimicrobial activity against Enterococcus faecalis ATCC29212 measured after 24 hrs by CLSI protocol based microdilution method; format: functional
Staphylococcus aureus [27] = assay: In vivo antibacterial activity against methicilin-resistant Staphylococcus aureus ATCC33591 infected in BALB/c mouse skin infection model assessed as reduction in skin lesions at 5 mg/kg administered daily for 4 days (reference value: 50.1 mm2); format: functional; conditions: time 4 day
Staphylococcus aureus [28] = assay: Antimicrobial activity against wild type Staphylococcus aureus RN4220 measured after 24 hrs by CLSI protocol based microdilution method; format: functional
Staphylococcus aureus [29] = assay: Antimicrobial activity against Staphylococcus aureus RN4220 harbouring pCM-sfgfp measured after 24 hrs by CLSI protocol based microdilution method; format: functional
[30] = Metabolic stability in mouse liver microsomes assessed as half life at 1 uM measured upto 120 mins in presence of NADPH by LC-MS analysis; format: ADME, Microsome
[31] = Half life in female Sprague-Dawley rat at 5 mg/kg, iv measured upto 24 hrs by LC-MS analysis; format: ADME, organism-based; conditions: in vivo
Staphylococcus aureus [32] = assay: Antimicrobial activity against […] Staphylococcus aureus ATCC33591 assessed as frequency of spontaneous resistance at 16 times MIC measured after 48 hrs by; format: functional
[33] = Clearance in female Sprague-Dawley rat at 5 mg/kg, iv measured upto 24 hrs by LC-MS analysis; format: ADME, organism-based; conditions: in vivo
Staphylococcus aureus [34] = assay: In vivo antibacterial activity against methicilin-resistant Staphylococcus aureus ATCC33591 infected in BALB/c mouse skin infection model assessed as normal skin structure at 5 mg/kg administered daily for 4 days by H and E staining based analysis; format: functional, organism-based; conditions: time 4.0 day
Staphylococcus aureus [35] = assay: In vivo antibacterial activity against methicilin-resistant Staphylococcus aureus ATCC33591 infected in BALB/c mouse skin infection model assessed as reduction in number of inflammatory cells at 5 mg/kg administered daily for 4 days by H and E staining based analysis; format: functional, organism-based; conditions: time 4.0 day
Staphylococcus aureus [36] = assay: Antimicrobial activity against methicillin-susceptible Staphylococcus aureus ATCC25923 measured after 24 hrs by CLSI protocol based microdilution method; format: functional
[37] = Metabolic stability in human liver microsomes assessed as intrinsic clearance at 1 uM measured upto 120 mins in presence of NADPH by LC-MS analysis; format: ADME, Microsome; conditions: read-out: CLH
Staphylococcus aureus [38] = assay: Bactericidal activity against […] Staphylococcus aureus ATCC33591 assessed as log reduction in bacterial count measured within 24 hrs by time-kill assay; format: functional
Staphylococcus aureus [39] = assay: Antimicrobial activity against […] Staphylococcus aureus ATCC33591 assessed as reduction in lipid content measured after 4 hrs by microplate reader based analysis; format: functional

Cc1c(CN(C)C(=O)/C=C/c2cnc3c(c2)CCC(=O)N3)oc2ccccc12 [AFN-1252]
IC50 [1]: 0.0423 µM
Cmax [2]: 711 ng/mL
bioavailability [3]: 40.7%
t1/2 [4]: 432 min
MIC (Escherichia coli): > 32 µg/mL
Activity (Staphylococcus aureus [5]): 10.4 mm2
half-life at 1 µM [6]: 34.5 min
log(activity) (Staphylococcus aureus [7]): 7.8
Tmax [8]: 60 min
MIC (Pseudomonas aeruginosa): > 32 µg/mL
log(activity) (Staphylococcus aureus [9]): -7.1
MIC (Staphylococcus aureus [10]): 0.25 µg/mL (≈ 0.666 µM)
MIC (Enterococcus faecium): > 32 µg/mL
MIC (Staphylococcus aureus [11]): 0.008 µg/mL (≈ 0.0213 µM)
Activity (Staphylococcus aureus [12]): Active
MIC (Staphylococcus aureus [13]): 1 µg/mL (≈ 2.66 µM)
Cmax [14]: 1810 ng/mL
MIC (Acinetobacter baumannii): > 32 µg/mL
MIC (Staphylococcus aureus [15]): 0.016 µg/mL (≈ 0.0426 µM)
MIC (Staphylococcus aureus [16]): 0.008 µg/mL (≈ 0.0213 µM)
Activity (Staphylococcus aureus [17]): 5.9 10^-10No_unit
AUCt [18]: 4414.1 ng·h/mL
Activity (Staphylococcus aureus [19]): 1.6 10^-9No_unit
MIC (Staphylococcus aureus [20]): 0.016 µg/mL (≈ 0.0426 µM)
Activity (Staphylococcus aureus [21]): Active
CL/F [22]: 71.7 mL/min/kg
MIC (Staphylococcus aureus [23]): 0.016 µg/mL (≈ 0.0426 µM)
CLint scaled at 1 µM [24]: 319 mL/min/kg
AUCt [25]: 2713.1 ng·h/mL
Activity (Staphylococcus aureus [26]): Active
MIC (Candida albicans): > 32 µg/mL
MIC (Enterococcus faecalis): > 32 µg/mL
Activity (Staphylococcus aureus [27]): 13.7 mm2
MIC (Staphylococcus aureus [28]): 0.016 µg/mL (≈ 0.0426 µM)
MIC (Staphylococcus aureus [29]): 0.016 µg/mL (≈ 0.0426 µM)
half-life at 1 µM [30]: 17.1 min
t1/2 [31]: 402 min
Activity (Staphylococcus aureus [32]): <2.6 10^-10No_unit
clearance [33]: 30 mL/min/kg
Activity (Staphylococcus aureus [34]): Active
Activity (Staphylococcus aureus [35]): Active
MIC (Staphylococcus aureus [36]): 0.008 µg/mL (≈ 0.0213 µM)
CLint scaled at 1 µM [37]: 50.4 mL/min/kg
log(activity) (Staphylococcus aureus [38]): 5
MIC (Staphylococcus aureus [39]): 0.008 µg/mL (≈ 0.0213 µM)
